According to the supplement of paper PMC4862054:

Key:
Conditions in all cases: incubation time: 72 h
MDA-MB-468 = assay: normalised viability (% of control), CellTiter-Blue; higher = more viable cells (about 100 = DMSO control)
Summary of the method: (§1)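 Compound dissolved in 5 µl medium was pre-loaded into 384-well plates, and breast cancer cell lines in 20 µl suspension were seeded on top and incubated 72 h. After adding 2.5 µl CellTiter-Blue reagent for 2 h at 37 °C, fluorescence was read at 560/590 nm. Plates were normalised to vehicle (100) and a positive kill control (0), with Z'-factor quality control. Each value is normalised viability at a single listed concentration from the series.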

HDQ-P1 = assay: as above
Summary of the method: as §1

BT-549 [1] = assay: as above
Summary of the method: as §1

MFM-223 = assay: as above
Summary of the method: as §1

Hs578T = assay: as above
Summary of the method: as §1

CAL-85-1 [2] = assay: as above
Summary of the method: as §1

BT-474 = assay: as above
Summary of the method: as §1

MDA-MB-231 = assay: as above
Summary of the method: as §1

HCC1599 [3] = assay: as above
Summary of the method: as §1

HCC1143 [4] = assay: as above
Summary of the method: as §1

MDA-MB-453 = assay: as above
Summary of the method: as §1

CAL-148 [5] = assay: as above
Summary of the method: as §1

CAL-120 = assay: as above
Summary of the method: as §1

CAL-51 [6] = assay: as above
Summary of the method: as §1

MDA-MB-436 [7] = assay: as above
Summary of the method: as §1

SK-BR-3 = assay: as above
Summary of the method: as §1

BT-549 [8] = assay: drug sensitivity score (DSS), CellTiter-Glo (DSS (AUC-based score)); higher = stronger drug effect (viability inhibition or cytotoxicity); extreme values may be limits of the assay
Summary of the method: (§2)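 Compound was dispensed into 384-well plates at 5 concentrations in 10-fold steps spanning a 10,000-fold range chosen for each compound, and 20 µl of breast cancer cell suspension was added before 72 h of incubation. CellTox Green fluorescence was read at 485/520 nm, followed by CellTiter-Glo luminescence after 10 min at room temperature. Values on each plate were normalised to 0.1 % DMSO and a positive kill control. The drug sensitivity score came from the area under the fitted dose-response curve.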

CAL-85-1 [9] = assay: as above
Summary of the method: as §2

HCC1599 [10] = assay: as above
Summary of the method: as §2

MCF-10A = assay: as above
Summary of the method: as §2

HCC1143 [11] = assay: as above
Summary of the method: as §2

CAL-148 [12] = assay: as above
Summary of the method: as §2

CAL-51 [13] = assay: as above
Summary of the method: as §2

MDA-MB-436 [14] = assay: as above
Summary of the method: as §2

## CC(C)C[C@@H](C(=O)N[C@H](C(=O)OC1CCCC1)c1ccccc1)[C@H](O)C(=O)NO [Tosedostat]
MDA-MB-468; 10 nM
  normalised viability: 91.5%
MDA-MB-468; 1000 nM
  normalised viability: 55.5%
MDA-MB-468; 10000 nM
  normalised viability: 54.2%
HDQ-P1; 3 nM
  normalised viability: 116%
HDQ-P1; 30 nM
  normalised viability: 100%
HDQ-P1; 100 nM
  normalised viability: 111%
BT-549 [1]; 10 nM
  normalised viability: 85%
BT-549 [1]; 1000 nM
  normalised viability: 63%
BT-549 [1]; 10000 nM
  normalised viability: 39.1%
MFM-223; 10 nM
  normalised viability: 91.6%
MFM-223; 1000 nM
  normalised viability: 64.1%
MFM-223; 10000 nM
  normalised viability: 32%
Hs578T; 10 nM
  normalised viability: 96.9%
Hs578T; 1000 nM
  normalised viability: 86%
Hs578T; 10000 nM
  normalised viability: 70%
CAL-85-1 [2]; 3 nM
  normalised viability: 104%
CAL-85-1 [2]; 30 nM
  normalised viability: 97.8%
CAL-85-1 [2]; 100 nM
  normalised viability: 90.8%
BT-474; 10 nM
  normalised viability: 107%
BT-474; 1000 nM
  normalised viability: 101%
BT-474; 10000 nM
  normalised viability: 105%
MDA-MB-231; 10 nM
  normalised viability: 105%
MDA-MB-231; 1000 nM
  normalised viability: 53.9%
MDA-MB-231; 10000 nM
  normalised viability: 47.1%
HCC1599 [3]; 10 nM
  normalised viability: 96.5%
HCC1599 [3]; 1000 nM
  normalised viability: 81.6%
HCC1599 [3]; 10000 nM
  normalised viability: 106%
HCC1143 [4]; 10 nM
  normalised viability: 86.3%
HCC1143 [4]; 1000 nM
  normalised viability: 63.8%
HCC1143 [4]; 10000 nM
  normalised viability: 61.1%
MDA-MB-453; 3 nM
  normalised viability: 119%
MDA-MB-453; 30 nM
  normalised viability: 101%
MDA-MB-453; 100 nM
  normalised viability: 60.4%
CAL-148 [5]; 3 nM
  normalised viability: 100%
CAL-148 [5]; 30 nM
  normalised viability: 96.3%
CAL-148 [5]; 100 nM
  normalised viability: 81.2%
CAL-120; 10 nM
  normalised viability: 82.4%
CAL-120; 1000 nM
  normalised viability: 65.4%
CAL-120; 10000 nM
  normalised viability: 55%
CAL-51 [6]; 3 nM
  normalised viability: 110%
CAL-51 [6]; 30 nM
  normalised viability: 111%
CAL-51 [6]; 100 nM
  normalised viability: 86.5%
MDA-MB-436 [7]; 10 nM
  normalised viability: 92.4%
MDA-MB-436 [7]; 1000 nM
  normalised viability: 73.1%
MDA-MB-436 [7]; 10000 nM
  normalised viability: 75.3%
SK-BR-3; 10 nM
  normalised viability: 96%
SK-BR-3; 1000 nM
  normalised viability: 85.7%
SK-BR-3; 10000 nM
  normalised viability: 63.4%
BT-549 [8]
  drug sensitivity score: 12.3
CAL-85-1 [9]
  drug sensitivity score: 12.7
HCC1599 [10]
  drug sensitivity score: 0
MCF-10A
  drug sensitivity score: 0
HCC1143 [11]
  drug sensitivity score: 5.96
CAL-148 [12]
  drug sensitivity score: 5.14
CAL-51 [13]
  drug sensitivity score: 4.55
MDA-MB-436 [14]
  drug sensitivity score: 5.37

## COc1cc2/c(=N/c3ccc(Br)cc3F)nc[nH]c2cc1OCC1CCN(C)CC1 [Vandetanib]
MDA-MB-468; 10 nM
  normalised viability: 89.8%
MDA-MB-468; 1000 nM
  normalised viability: 74.3%
MDA-MB-468; 10000 nM
  normalised viability: 28%
HDQ-P1; 3 nM
  normalised viability: 76.8%
HDQ-P1; 30 nM
  normalised viability: 72.1%
HDQ-P1; 100 nM
  normalised viability: 59.3%
BT-549 [1]; 10 nM
  normalised viability: 102%
BT-549 [1]; 1000 nM
  normalised viability: 85.2%
BT-549 [1]; 10000 nM
  normalised viability: 22.4%
MFM-223; 10 nM
  normalised viability: 100%
MFM-223; 1000 nM
  normalised viability: 61.6%
MFM-223; 10000 nM
  normalised viability: 30.6%
Hs578T; 10 nM
  normalised viability: 108%
Hs578T; 1000 nM
  normalised viability: 92.8%
Hs578T; 10000 nM
  normalised viability: 50%
CAL-85-1 [2]; 3 nM
  normalised viability: 105%
CAL-85-1 [2]; 30 nM
  normalised viability: 109%
CAL-85-1 [2]; 100 nM
  normalised viability: 101%
BT-474; 10 nM
  normalised viability: 92.7%
BT-474; 1000 nM
  normalised viability: 78.8%
BT-474; 10000 nM
  normalised viability: 8.47%
MDA-MB-231; 10 nM
  normalised viability: 86%
MDA-MB-231; 1000 nM
  normalised viability: 82.5%
MDA-MB-231; 10000 nM
  normalised viability: 8.26%
HCC1599 [3]; 10 nM
  normalised viability: 88.7%
HCC1599 [3]; 1000 nM
  normalised viability: 107%
HCC1599 [3]; 10000 nM
  normalised viability: 58.5%
HCC1143 [4]; 10 nM
  normalised viability: 122%
HCC1143 [4]; 1000 nM
  normalised viability: 99.7%
HCC1143 [4]; 10000 nM
  normalised viability: 68.5%
MDA-MB-453; 3 nM
  normalised viability: 89.6%
MDA-MB-453; 30 nM
  normalised viability: 94.4%
MDA-MB-453; 100 nM
  normalised viability: 91.4%
CAL-148 [5]; 3 nM
  normalised viability: 96.2%
CAL-148 [5]; 30 nM
  normalised viability: 93.2%
CAL-148 [5]; 100 nM
  normalised viability: 92.8%
CAL-120; 10 nM
  normalised viability: 117%
CAL-120; 1000 nM
  normalised viability: 98.2%
CAL-120; 10000 nM
  normalised viability: 17.6%
CAL-51 [6]; 3 nM
  normalised viability: 105%
CAL-51 [6]; 30 nM
  normalised viability: 107%
CAL-51 [6]; 100 nM
  normalised viability: 92.3%
MDA-MB-436 [7]; 10 nM
  normalised viability: 76.4%
MDA-MB-436 [7]; 1000 nM
  normalised viability: 35.7%
MDA-MB-436 [7]; 10000 nM
  normalised viability: 30.1%
SK-BR-3; 10 nM
  normalised viability: 100%
SK-BR-3; 1000 nM
  normalised viability: 96.4%
SK-BR-3; 10000 nM
  normalised viability: 14.3%
BT-549 [8]
  drug sensitivity score: 0
CAL-85-1 [9]
  drug sensitivity score: 0
HCC1599 [10]
  drug sensitivity score: 0
MCF-10A
  drug sensitivity score: 10.3
HCC1143 [11]
  drug sensitivity score: 0
CAL-148 [12]
  drug sensitivity score: 0
CAL-51 [13]
  drug sensitivity score: 0.137
MDA-MB-436 [14]
  drug sensitivity score: 0.551

## COCC[n+]1c2c(n(Cc3cnccn3)c1C)C(=O)c1ccccc1C2=O [YM155]
MDA-MB-468; 10 nM
  normalised viability: 12.8%
MDA-MB-468; 1000 nM
  normalised viability: 0.21%
MDA-MB-468; 10000 nM
  normalised viability: 0.26%
HDQ-P1; 3 nM
  normalised viability: 80.4%
HDQ-P1; 30 nM
  normalised viability: 16.8%
HDQ-P1; 100 nM
  normalised viability: 0.96%
BT-549 [1]; 10 nM
  normalised viability: 83%
BT-549 [1]; 1000 nM
  normalised viability: 0.74%
BT-549 [1]; 10000 nM
  normalised viability: -0.61%
MFM-223; 10 nM
  normalised viability: 62.8%
MFM-223; 1000 nM
  normalised viability: 12.2%
MFM-223; 10000 nM
  normalised viability: 6.53%
Hs578T; 10 nM
  normalised viability: 84.8%
Hs578T; 1000 nM
  normalised viability: 19.6%
Hs578T; 10000 nM
  normalised viability: -0.04%
CAL-85-1 [2]; 3 nM
  normalised viability: 90.3%
CAL-85-1 [2]; 30 nM
  normalised viability: 3.33%
CAL-85-1 [2]; 100 nM
  normalised viability: 1.96%
BT-474; 10 nM
  normalised viability: 84.2%
BT-474; 1000 nM
  normalised viability: 0.63%
BT-474; 10000 nM
  normalised viability: 2.25%
MDA-MB-231; 10 nM
  normalised viability: 14.7%
MDA-MB-231; 1000 nM
  normalised viability: 1.23%
MDA-MB-231; 10000 nM
  normalised viability: 2.19%
HCC1599 [3]; 10 nM
  normalised viability: 62.8%
HCC1599 [3]; 1000 nM
  normalised viability: 3.16%
HCC1599 [3]; 10000 nM
  normalised viability: 2.97%
HCC1143 [4]; 10 nM
  normalised viability: 83.8%
HCC1143 [4]; 1000 nM
  normalised viability: 3.34%
HCC1143 [4]; 10000 nM
  normalised viability: 2.44%
MDA-MB-453; 3 nM
  normalised viability: 70.7%
MDA-MB-453; 30 nM
  normalised viability: 18.7%
MDA-MB-453; 100 nM
  normalised viability: 18.2%
CAL-148 [5]; 3 nM
  normalised viability: 98.3%
CAL-148 [5]; 30 nM
  normalised viability: 1.65%
CAL-148 [5]; 100 nM
  normalised viability: 1.83%
CAL-120; 10 nM
  normalised viability: 9.27%
CAL-120; 1000 nM
  normalised viability: 2.84%
CAL-120; 10000 nM
  normalised viability: 3.14%
CAL-51 [6]; 3 nM
  normalised viability: 94.6%
CAL-51 [6]; 30 nM
  normalised viability: 38.9%
CAL-51 [6]; 100 nM
  normalised viability: 11.5%
MDA-MB-436 [7]; 10 nM
  normalised viability: 34.5%
MDA-MB-436 [7]; 1000 nM
  normalised viability: 0.04%
MDA-MB-436 [7]; 10000 nM
  normalised viability: 0.01%
SK-BR-3; 10 nM
  normalised viability: 44.3%
SK-BR-3; 1000 nM
  normalised viability: 0.33%
SK-BR-3; 10000 nM
  normalised viability: 0.6%
BT-549 [8]
  drug sensitivity score: 25.8
CAL-85-1 [9]
  drug sensitivity score: 39.2
HCC1599 [10]
  drug sensitivity score: 35.3
MCF-10A
  drug sensitivity score: 29.5
HCC1143 [11]
  drug sensitivity score: 35.2
CAL-148 [12]
  drug sensitivity score: 33
CAL-51 [13]
  drug sensitivity score: 33.8
MDA-MB-436 [14]
  drug sensitivity score: 40.6
